Results taken from ChEMBL document CHEMBL1641554, “Synthesis and SAR study of diphenylbutylpiperidines as cell autophagy inducers” (Bioorg Med Chem Lett, 2011).

What follows are compounds tested on H4 (assay: Induction of autophagy in human H4 cells expressing LC3 using DAPI staining after 4 hrs by fluorescence microscopic analysis). Conditions: H4, 4 h.
Assay type: functional, cell-based
For `N#CC(CCCN1CCC2(CC1)C(=O)NCN2c1ccccc1)(c1ccccc1)c1ccccc1`, the EC50 was 14.8 µM.
For `O=C1NCN(c2ccccc2)C12CCN(CCCN(c1ccccc1)c1ccccc1)CC2`, the EC50 was 24.9 µM.
Work on `O=C1NCN(c2ccccc2)C12CCN(CCC=C(c1ccc(F)cc1)c1ccc(F)cc1)CC2` yielded an EC50 of 6.2 µM.
`O=C(CCC(c1ccc(F)cc1)c1ccc(F)cc1)N1CCC2(CC1)C(=O)NCN2c1ccccc1` was tested, and the EC50 was over 50 µM.
For `O=C1NCN(c2ccccc2)C12CCN(CCCC(O)c1ccc(F)cc1)CC2` (stereo unspecified), the EC50 was over 50 µM.
`O=C1NCN(c2ccccc2)C12CCN(CC/C=C\c1ccc(F)cc1)CC2` gave an EC50 of over 50 µM.
Work on `O=C1NCN(c2ccccc2)C12CCN(CCCCC(c1ccc(F)cc1)c1ccc(F)cc1)CC2` yielded an EC50 of 4.7 µM.
Work on `O=C1NCN(c2ccccc2)C12CCN(CCC(c1ccc(F)cc1)c1ccc(F)cc1)CC2` yielded an EC50 of 2.1 µM.
Compound `O=C1NCN(c2ccccc2)C12CCN(CCCC(c1ccccc1)c1ccccc1)CC2` has an EC50 of 34.6 µM.
For `O=C1NCN(c2ccccc2)C12CCN(CCCC(c1ccc(Cl)cc1)c1ccc(Cl)cc1)CC2`, the EC50 was 4.2 µM.
`O=C1NCN(c2ccccc2)C12CCN(CCCC(c1ccc(C(F)(F)F)cc1)c1ccc(C(F)(F)F)cc1)CC2` gave an EC50 of 3.7 µM.
`Cc1ccc(C(CCCN2CCC3(CC2)C(=O)NCN3c2ccccc2)c2ccc(C)cc2)cc1` was tested, and the EC50 was 3.1 µM.
For `COc1ccc(C(CCCN2CCC3(CC2)C(=O)NCN3c2ccccc2)c2ccc(OC)cc2)cc1`, the EC50 was 4.6 µM.
In the case of `OC1(c2ccc(Cl)c(C(F)(F)F)c2)CCN(CCCC(c2ccc(OC(F)(F)F)cc2)c2ccc(OC(F)(F)F)cc2)CC1`, the EC50 is reported as 0.97 µM.
`OC1(c2ccc(Cl)c(C(F)(F)F)c2)CCN(CCCC(c2cccc(F)c2)c2cccc(F)c2)CC1` gave an EC50 of 2.2 µM.
With `OC1(c2ccc(Cl)c(C(F)(F)F)c2)CCN(CCCC(c2cccc(C(F)(F)F)c2)c2cccc(C(F)(F)F)c2)CC1` the EC50 was 0.65 µM.
For `Cc1cccc(C(CCCN2CCC(O)(c3ccc(Cl)c(C(F)(F)F)c3)CC2)c2cccc(C)c2)c1`, the EC50 was 0.29 µM.
`O=C1NCN(c2ccccc2)C12CCN(C1c3ccccc3Sc3ccccc31)CC2` showed an EC50 of over 50 µM.
Work on `OC1(c2ccc(C(F)(F)F)c(Cl)c2)CCN(C2c3ccccc3-c3ccccc32)CC1` yielded an EC50 of 2.6 µM.
With `OC1(c2ccc(C(F)(F)F)c(Cl)c2)CCN(C2c3ccccc3Sc3ccccc32)CC1` the EC50 was 14.4 µM.
`OC1(c2ccc(C(F)(F)F)c(Cl)c2)CCN(C2c3ccccc3CCc3ccccc32)CC1` was tested, and the EC50 was 2.6 µM.
Compound `CN1CCN(CCCC(c2ccc(F)cc2)c2ccc(F)cc2)CC1` has an EC50 of over 50 µM.
Work on `OCCN1CCN(CCCC(c2ccc(F)cc2)c2ccc(F)cc2)CC1` yielded an EC50 of over 50 µM.
With `Fc1ccc(C(CCCN2CCN(c3ccc(Cl)cc3)CC2)c2ccc(F)cc2)cc1` the EC50 was over 50 µM.
Work on `Fc1ccc(C(CCCN2CCOCC2)c2ccc(F)cc2)cc1` yielded an EC50 of over 50 µM.
Work on `Cc1ccc(C2=CCN(CCCC(c3ccc(F)cc3)c3ccc(F)cc3)CC2)cc1` yielded an EC50 of over 50 µM.
`Cc1ccc(C2CCN(CCCC(c3ccc(F)cc3)c3ccc(F)cc3)CC2)cc1` showed an EC50 of over 50 µM.
`Cc1ccc(C2(O)CCN(CCCC(c3ccc(F)cc3)c3ccc(F)cc3)CC2)cc1` was tested, and the EC50 was 6.4 µM.
With `CC(=O)OC1(c2ccc(C)cc2)CCN(CCCC(c2ccc(F)cc2)c2ccc(F)cc2)CC1` the EC50 was 4.4 µM.
`CC(=O)NC1(c2ccc(C)cc2)CCN(CCCC(c2ccc(F)cc2)c2ccc(F)cc2)CC1` showed an EC50 of 2.2 µM.
With `N#CC1(c2ccccc2)CCN(CCCC(c2ccc(F)cc2)c2ccc(F)cc2)CC1` the EC50 was 10.5 µM.
Compound `OC1(c2ccc(Cl)c(C(F)(F)F)c2)CCN(CCC=C(c2ccc(F)cc2)c2ccc(F)cc2)CC1` has an EC50 of 4.3 µM.
`O=C(CCC(c1ccc(F)cc1)c1ccc(F)cc1)N1CCC(O)(c2ccc(Cl)c(C(F)(F)F)c2)CC1` showed an EC50 of over 50 µM.
Compound `OC1(c2ccc(Cl)c(C(F)(F)F)c2)CCN(CCCCC(c2ccc(F)cc2)c2ccc(F)cc2)CC1` has an EC50 of 2.7 µM.
Compound `OC1(c2ccc(Cl)c(C(F)(F)F)c2)CCN(CCC(c2ccc(F)cc2)c2ccc(F)cc2)CC1` has an EC50 of 4.5 µM.
`OC1(c2ccc(Cl)c(C(F)(F)F)c2)CCN(CCCC(c2ccccc2)c2ccccc2)CC1` showed an EC50 of 5.1 µM.
Compound `OC1(c2ccc(Cl)c(C(F)(F)F)c2)CCN(CCCC(c2ccc(Cl)cc2)c2ccc(Cl)cc2)CC1` has an EC50 of 2.4 µM.
`OC1(c2ccc(Cl)c(C(F)(F)F)c2)CCN(CCCC(c2ccc(C(F)(F)F)cc2)c2ccc(C(F)(F)F)cc2)CC1` gave an EC50 of 0.28 µM.
In the case of `Cc1ccc(C(CCCN2CCC(O)(c3ccc(Cl)c(C(F)(F)F)c3)CC2)c2ccc(C)cc2)cc1`, the EC50 is reported as 0.29 µM.
In the case of `COc1ccc(C(CCCN2CCC(O)(c3ccc(Cl)c(C(F)(F)F)c3)CC2)c2ccc(OC)cc2)cc1`, the EC50 is reported as 1.2 µM.
`O=C1NCN(c2ccccc2)C12CCN(C1c3ccccc3-c3ccccc31)CC2` gave an EC50 of 7.9 µM.
`O=C1NCN(c2ccccc2)C12CCN(C1c3ccccc3CCc3ccccc31)CC2` showed an EC50 of 5.1 µM.
Compound `N#CC(CCCN1CCC(O)(c2ccc(Cl)c(C(F)(F)F)c2)CC1)(c1ccccc1)c1ccccc1` has an EC50 of 3.2 µM.
In the case of `O=C1NCN(c2ccccc2)C12CCN(CCCCc1ccc(F)cc1)CC2`, the EC50 is reported as over 50 µM.
`O=C1NCN(c2ccccc2)C12CCN(CCCC(c1ccc(F)cc1)c1ccc(F)cc1)CC2` [FLUSPIRILENE] showed an EC50 of 2.4 µM.
`OC1(c2ccc(Cl)c(C(F)(F)F)c2)CCN(CCCC(c2ccc(F)cc2)c2ccc(F)cc2)CC1` [PENFLURIDOL] was tested, and the EC50 was 3.2 µM.
